{"source": "patent US12275731B2", "about": "“Azaindole inhibitors of wild-type and mutant forms of LRRK2” (DANA-FARBER CANCER INSTITUTE, INC., priority 2018, dated 2025)", "test_in_all_cases": "KinomeScan profiling", "format_in_all_cases": "binding", "key": {"[1]": {"biological_target": "T1, RSK1(Kin.Dom.2-C-terminal) (Homo sapiens, UniProt Q15418)", "T1 construct": "RSK1(Kin.Dom.2-C-terminal)", "T1 sequence (Q15418 418-675 limits assumed)": "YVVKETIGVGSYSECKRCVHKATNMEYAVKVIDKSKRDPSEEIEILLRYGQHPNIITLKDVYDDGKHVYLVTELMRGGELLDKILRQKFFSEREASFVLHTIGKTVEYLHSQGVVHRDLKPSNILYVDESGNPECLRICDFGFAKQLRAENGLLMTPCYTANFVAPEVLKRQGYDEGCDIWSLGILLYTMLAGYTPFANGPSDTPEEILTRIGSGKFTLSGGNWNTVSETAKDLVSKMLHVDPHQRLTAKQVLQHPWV", "settings": "read-out: % control", "summary_of_the_method": "(§1)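 Single-point competition binding screen: 1 μM, DMSO, 468 kinases. Results reported as % control from RLU, normalised to DMSO and positive-control wells. Activity threshold: <35% control.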"}, "MEK2": {"biological_target": "MEK2 (Homo sapiens, UniProt P36507)", "sequence (P36507 whole entry)": "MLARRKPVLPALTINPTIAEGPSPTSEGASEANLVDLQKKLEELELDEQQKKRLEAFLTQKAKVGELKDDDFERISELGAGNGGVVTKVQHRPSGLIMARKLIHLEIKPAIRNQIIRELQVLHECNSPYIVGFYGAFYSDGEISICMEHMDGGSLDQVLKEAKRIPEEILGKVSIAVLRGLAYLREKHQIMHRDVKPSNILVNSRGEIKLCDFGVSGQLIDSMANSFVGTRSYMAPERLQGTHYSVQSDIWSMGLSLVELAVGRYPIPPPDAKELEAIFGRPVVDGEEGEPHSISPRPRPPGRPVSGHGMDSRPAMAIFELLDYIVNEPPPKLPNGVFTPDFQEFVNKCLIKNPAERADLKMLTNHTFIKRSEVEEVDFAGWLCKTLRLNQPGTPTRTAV", "settings": "MEK2, 1 μM; read-out: % control", "summary_of_the_method": "as §1"}, "[2]": {"biological_target": "T2, JAK1(JH1domain-catalytic) (Homo sapiens, UniProt P23458)", "T2 construct": "JAK1(JH1domain-catalytic); purchased KinomeScan®", "T2 sequence (P23458 875-1153 limits assumed)": "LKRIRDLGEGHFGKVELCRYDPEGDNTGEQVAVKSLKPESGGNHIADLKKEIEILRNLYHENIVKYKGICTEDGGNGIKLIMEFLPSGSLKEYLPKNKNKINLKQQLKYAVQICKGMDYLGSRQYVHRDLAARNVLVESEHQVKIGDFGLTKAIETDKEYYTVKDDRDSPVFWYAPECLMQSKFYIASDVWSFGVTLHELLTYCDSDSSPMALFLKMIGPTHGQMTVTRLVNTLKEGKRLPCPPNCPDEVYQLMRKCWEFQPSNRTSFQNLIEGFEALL", "settings": "read-out: % control", "summary_of_the_method": "as §1"}, "MAPKAPK5": {"biological_target": "T3, MAPKAPK5 (Homo sapiens, UniProt Q8IW41)", "T3 sequence (Q8IW41 1-473)": "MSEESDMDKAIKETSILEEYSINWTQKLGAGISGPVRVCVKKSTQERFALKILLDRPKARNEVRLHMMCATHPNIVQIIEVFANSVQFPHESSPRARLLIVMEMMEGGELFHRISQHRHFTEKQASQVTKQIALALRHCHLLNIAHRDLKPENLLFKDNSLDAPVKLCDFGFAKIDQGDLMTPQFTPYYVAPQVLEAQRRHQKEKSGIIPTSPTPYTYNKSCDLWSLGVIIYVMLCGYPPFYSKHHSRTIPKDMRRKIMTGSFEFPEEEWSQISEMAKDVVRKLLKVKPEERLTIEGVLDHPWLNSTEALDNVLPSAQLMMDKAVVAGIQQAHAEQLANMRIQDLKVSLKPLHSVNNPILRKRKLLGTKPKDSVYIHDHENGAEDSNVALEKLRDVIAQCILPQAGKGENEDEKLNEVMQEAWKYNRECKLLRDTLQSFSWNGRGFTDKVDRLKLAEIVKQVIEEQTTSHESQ", "settings": "MAPKAPK5, 1 μM; read-out: % control", "summary_of_the_method": "as §1"}, "DRAK2": {"biological_target": "T4, DRAK2 (Homo sapiens, UniProt O94768)", "T4 sequence (O94768 1-372)": "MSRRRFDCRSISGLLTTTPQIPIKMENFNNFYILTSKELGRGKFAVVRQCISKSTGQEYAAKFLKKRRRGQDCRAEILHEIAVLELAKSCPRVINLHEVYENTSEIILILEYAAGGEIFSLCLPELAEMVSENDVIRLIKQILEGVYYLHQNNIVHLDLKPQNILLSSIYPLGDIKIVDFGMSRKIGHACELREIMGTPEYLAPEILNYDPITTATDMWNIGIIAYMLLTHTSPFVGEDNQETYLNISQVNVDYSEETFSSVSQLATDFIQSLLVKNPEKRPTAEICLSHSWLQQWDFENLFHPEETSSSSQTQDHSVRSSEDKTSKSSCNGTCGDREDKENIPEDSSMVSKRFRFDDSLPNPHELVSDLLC", "settings": "DRAK2, 1 μM; read-out: % control", "summary_of_the_method": "as §1"}, "TBK1": {"biological_target": "T5, TBK1 (Homo sapiens, UniProt Q9UHD2)", "T5 sequence (Q9UHD2 1-729)": "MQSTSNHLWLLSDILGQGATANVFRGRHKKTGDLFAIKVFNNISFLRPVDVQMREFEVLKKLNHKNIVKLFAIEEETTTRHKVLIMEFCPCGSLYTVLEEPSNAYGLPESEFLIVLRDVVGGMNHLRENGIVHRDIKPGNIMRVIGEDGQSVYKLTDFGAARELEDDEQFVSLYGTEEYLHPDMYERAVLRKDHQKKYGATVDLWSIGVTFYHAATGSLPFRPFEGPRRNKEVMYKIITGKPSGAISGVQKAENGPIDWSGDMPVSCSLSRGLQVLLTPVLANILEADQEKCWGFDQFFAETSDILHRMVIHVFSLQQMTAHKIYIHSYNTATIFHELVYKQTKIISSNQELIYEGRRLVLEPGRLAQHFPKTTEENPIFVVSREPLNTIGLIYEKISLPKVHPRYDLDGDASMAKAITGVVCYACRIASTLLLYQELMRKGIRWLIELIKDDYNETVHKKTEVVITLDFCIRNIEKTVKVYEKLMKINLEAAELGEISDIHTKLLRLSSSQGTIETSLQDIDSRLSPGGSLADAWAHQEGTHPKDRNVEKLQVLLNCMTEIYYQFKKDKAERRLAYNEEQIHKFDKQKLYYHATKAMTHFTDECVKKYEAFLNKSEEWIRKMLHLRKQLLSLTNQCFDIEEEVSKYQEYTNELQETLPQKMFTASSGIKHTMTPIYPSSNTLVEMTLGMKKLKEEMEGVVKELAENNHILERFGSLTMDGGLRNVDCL", "settings": "TBK1, 1 μM; read-out: % control", "summary_of_the_method": "as §1"}, "CHEK1": {"biological_target": "T6, CHEK1 (Homo sapiens, UniProt O14757)", "T6 sequence (O14757 1-476)": "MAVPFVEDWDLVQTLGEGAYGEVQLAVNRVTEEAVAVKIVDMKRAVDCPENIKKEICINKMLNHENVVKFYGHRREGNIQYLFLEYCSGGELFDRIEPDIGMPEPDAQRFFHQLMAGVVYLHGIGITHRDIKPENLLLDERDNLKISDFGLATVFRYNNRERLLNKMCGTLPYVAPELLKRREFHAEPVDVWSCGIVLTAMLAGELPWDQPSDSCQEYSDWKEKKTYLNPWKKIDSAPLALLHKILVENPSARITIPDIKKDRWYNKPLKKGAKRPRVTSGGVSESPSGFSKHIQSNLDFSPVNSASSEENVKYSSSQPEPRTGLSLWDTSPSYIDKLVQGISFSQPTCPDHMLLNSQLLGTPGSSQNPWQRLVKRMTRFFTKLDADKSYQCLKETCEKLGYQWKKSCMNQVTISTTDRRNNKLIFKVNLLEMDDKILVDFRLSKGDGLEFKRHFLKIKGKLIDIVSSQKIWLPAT", "settings": "CHEK1, 1 μM; read-out: % control", "summary_of_the_method": "as §1"}, "MLK2": {"biological_target": "MLK2 (Homo sapiens, UniProt Q02779)", "sequence (Q02779 whole entry)": "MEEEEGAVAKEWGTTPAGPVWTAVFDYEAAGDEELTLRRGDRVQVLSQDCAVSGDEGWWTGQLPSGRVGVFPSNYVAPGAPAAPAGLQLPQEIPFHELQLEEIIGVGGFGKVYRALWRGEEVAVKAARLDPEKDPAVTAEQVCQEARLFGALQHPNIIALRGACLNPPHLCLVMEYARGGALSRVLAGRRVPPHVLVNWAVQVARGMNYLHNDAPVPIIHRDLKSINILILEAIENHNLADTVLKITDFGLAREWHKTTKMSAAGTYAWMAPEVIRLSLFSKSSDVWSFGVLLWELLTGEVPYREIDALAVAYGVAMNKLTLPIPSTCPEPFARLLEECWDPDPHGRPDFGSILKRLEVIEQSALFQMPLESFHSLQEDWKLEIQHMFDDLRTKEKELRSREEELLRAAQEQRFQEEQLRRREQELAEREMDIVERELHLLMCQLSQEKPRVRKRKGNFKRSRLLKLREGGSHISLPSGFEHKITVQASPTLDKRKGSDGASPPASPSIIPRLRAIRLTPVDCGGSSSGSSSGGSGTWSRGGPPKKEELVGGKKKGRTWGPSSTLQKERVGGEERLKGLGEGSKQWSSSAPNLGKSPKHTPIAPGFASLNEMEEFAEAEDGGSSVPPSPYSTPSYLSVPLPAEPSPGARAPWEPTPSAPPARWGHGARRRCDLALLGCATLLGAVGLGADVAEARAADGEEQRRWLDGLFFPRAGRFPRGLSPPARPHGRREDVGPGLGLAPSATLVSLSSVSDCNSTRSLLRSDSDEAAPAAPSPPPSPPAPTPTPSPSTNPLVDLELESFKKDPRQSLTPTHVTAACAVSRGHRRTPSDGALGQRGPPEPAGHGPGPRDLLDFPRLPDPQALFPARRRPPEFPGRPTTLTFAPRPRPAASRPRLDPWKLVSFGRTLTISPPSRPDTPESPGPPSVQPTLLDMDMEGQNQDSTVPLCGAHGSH", "settings": "MLK2, 1 μM; read-out: % control", "summary_of_the_method": "as §1"}, "CDKL1": {"biological_target": "CDKL1 (Homo sapiens, UniProt Q00532)", "sequence (Q00532 whole entry)": "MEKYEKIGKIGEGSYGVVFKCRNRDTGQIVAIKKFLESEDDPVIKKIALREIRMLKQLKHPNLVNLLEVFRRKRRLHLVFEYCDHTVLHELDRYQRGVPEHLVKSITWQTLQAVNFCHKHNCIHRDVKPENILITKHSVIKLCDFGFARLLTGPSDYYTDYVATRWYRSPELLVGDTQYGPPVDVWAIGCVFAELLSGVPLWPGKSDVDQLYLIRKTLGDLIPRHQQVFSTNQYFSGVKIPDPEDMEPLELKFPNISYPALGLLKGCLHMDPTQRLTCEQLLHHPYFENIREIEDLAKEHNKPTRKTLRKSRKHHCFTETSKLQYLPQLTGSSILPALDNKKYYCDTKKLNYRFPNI", "settings": "CDKL1, 1 μM; read-out: % control", "summary_of_the_method": "as §1"}, "PFCDPK1(P. falciparum)": {"biological_target": "PFCDPK1(P. falciparum) (Plasmodium falciparum, UniProt P62344)", "sequence (P62344 whole entry)": "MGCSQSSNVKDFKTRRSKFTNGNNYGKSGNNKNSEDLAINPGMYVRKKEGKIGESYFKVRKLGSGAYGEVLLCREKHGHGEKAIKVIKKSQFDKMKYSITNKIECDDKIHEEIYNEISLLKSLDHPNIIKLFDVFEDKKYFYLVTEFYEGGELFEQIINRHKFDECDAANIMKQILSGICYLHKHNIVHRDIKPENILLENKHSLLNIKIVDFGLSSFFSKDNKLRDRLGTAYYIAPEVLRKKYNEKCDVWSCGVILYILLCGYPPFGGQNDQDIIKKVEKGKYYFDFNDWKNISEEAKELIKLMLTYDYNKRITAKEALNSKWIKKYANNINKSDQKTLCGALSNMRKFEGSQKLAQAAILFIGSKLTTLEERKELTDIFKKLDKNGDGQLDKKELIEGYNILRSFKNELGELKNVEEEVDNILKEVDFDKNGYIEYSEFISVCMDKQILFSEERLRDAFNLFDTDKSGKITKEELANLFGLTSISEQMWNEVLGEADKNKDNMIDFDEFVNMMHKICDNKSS", "settings": "read-out: % control", "summary_of_the_method": "as §1"}}, "data": [{"smiles": "CNc1c(-c2cnn([C@H]3CCN(C(C)=O)C[C@@H]3F)c2)cnc2[nH]cc(Cl)c12", "note": "[Compound 77, 1-((3S,4S)-4-(4-(3-chloro-4-(methylamino)-1H-pyrrolo[2,3-b]pyridin-5-yl)-1H-pyrazol-1-yl)-3-fluoropiperidin-1-yl)ethan-1-one]", "values": [{"measurement": "remaining binding at 1 µM", "setting": "[1]", "value": 99, "unit": "%"}, {"measurement": "remaining binding at 1 µM", "setting": "MEK2", "value": 31, "unit": "%"}, {"measurement": "remaining binding at 1 µM", "setting": "[2]", "value": 98, "unit": "%"}, {"measurement": "remaining binding at 1 µM", "setting": "MAPKAPK5", "value": 100, "unit": "%"}, {"measurement": "remaining binding at 1 µM", "setting": "DRAK2", "value": 47, "unit": "%"}, {"measurement": "remaining binding at 1 µM", "setting": "TBK1", "value": 57, "unit": "%"}, {"measurement": "remaining binding at 1 µM", "setting": "CHEK1", "value": 89, "unit": "%"}, {"measurement": "remaining binding at 1 µM", "setting": "MLK2", "value": 62, "unit": "%"}, {"measurement": "remaining binding at 1 µM", "setting": "CDKL1", "value": 76, "unit": "%"}, {"measurement": "remaining binding at 1 µM", "setting": "PFCDPK1(P. falciparum)", "value": 86, "unit": "%"}]}, {"smiles": "CNc1c(-c2ccc(C(=O)N3CCC(N4CCOCC4)CC3)cc2)cnc2[nH]cc(Cl)c12", "note": "[Compound 96, (4-(3-chloro-4-(methylamino)-1H-pyrrolo[2,3-b]pyridin-5-yl)phenyl)(4-morpholinopiperidin-1-yl)methanone]", "values": [{"measurement": "remaining binding at 1 µM", "setting": "[1]", "value": 100, "unit": "%"}, {"measurement": "remaining binding at 1 µM", "setting": "MEK2", "value": 19, "unit": "%"}, {"measurement": "remaining binding at 1 µM", "setting": "[2]", "value": 100, "unit": "%"}, {"measurement": "remaining binding at 1 µM", "setting": "MAPKAPK5", "value": 100, "unit": "%"}, {"measurement": "remaining binding at 1 µM", "setting": "DRAK2", "value": 19, "unit": "%"}, {"measurement": "remaining binding at 1 µM", "setting": "TBK1", "value": 91, "unit": "%"}, {"measurement": "remaining binding at 1 µM", "setting": "CHEK1", "value": 84, "unit": "%"}, {"measurement": "remaining binding at 1 µM", "setting": "MLK2", "value": 39, "unit": "%"}, {"measurement": "remaining binding at 1 µM", "setting": "CDKL1", "value": 78, "unit": "%"}, {"measurement": "remaining binding at 1 µM", "setting": "PFCDPK1(P. falciparum)", "value": 94, "unit": "%"}]}, {"smiles": "O=C(c1ccc(-c2cnc3[nH]cc(Cl)c3c2NC2CCCC2)cc1)N1CCC(N2CCOCC2)CC1", "note": "[Compound 101, (4-(3-chloro-4-(cyclopentylamino)-1H-pyrrolo[2,3-b]pyridin-5-yl)phenyl)(4-morpholinopiperidin-1-yl)methanone]", "values": [{"measurement": "remaining binding at 1 µM", "setting": "[1]", "value": 88, "unit": "%"}, {"measurement": "remaining binding at 1 µM", "setting": "MEK2", "value": 87, "unit": "%"}, {"measurement": "remaining binding at 1 µM", "setting": "[2]", "value": 90, "unit": "%"}, {"measurement": "remaining binding at 1 µM", "setting": "MAPKAPK5", "value": 100, "unit": "%"}, {"measurement": "remaining binding at 1 µM", "setting": "DRAK2", "value": 92, "unit": "%"}, {"measurement": "remaining binding at 1 µM", "setting": "TBK1", "value": 90, "unit": "%"}, {"measurement": "remaining binding at 1 µM", "setting": "CHEK1", "value": 83, "unit": "%"}, {"measurement": "remaining binding at 1 µM", "setting": "MLK2", "value": 69, "unit": "%"}, {"measurement": "remaining binding at 1 µM", "setting": "CDKL1", "value": 100, "unit": "%"}, {"measurement": "remaining binding at 1 µM", "setting": "PFCDPK1(P. falciparum)", "value": 95, "unit": "%"}]}]}
